Where a name gives a salt, the structure may show the parent alone.
Key:
Assay type in all cases: in vivo, soybean
[1] = test system: Mutant 1-184A; test: Test A postemergence herbicide spray, greenhouse pots
From the text: (§1) In the first post-emergence test, two true-breeding resistant mutant lines, W19 and W20, were compared to previously isolated tolerant mutants and wild-type Williams 82. Eighteen pots (20 cm diameter) of each soybean line (2 seeds per pot) were planted using a standard sterile potting mix. When the seedlings reached the second trifoliolate stage, plants were thinned back to one plant per pot. Each pot was then sprayed with a specific herbicide treatment using a conveyor belt spray apparatus to emulate field application. The nine different herbicide treatments included one rate (8 g/ha) of Compound 1 and two rates (8 and 32 g/ha) each of four other sulfonylurea herbicides (Compounds 2,3,7 and 8) (see Table VI) using a factorial treatment design with 2 replications.
(§2) In both postemergence tests, plants were returned to the greenhouse after treatment and provided with ample light, moisture, and nutrients to support healthy plant growth. Two to three ratings per pot were recorded over a three-week period and averaged to obtain a single value for each pot For each herbicide, analysis of variance on injury ratings was performed separately. Fisher's least significant difference (LSD) was used to determine the significance of line mean differences at each herbicide rate using the 95% level of confidence. […]

[2] = test system: Williams 82; test: as above
From the text: as §1, §2

[3] = test system: mutant W19; test: as above
From the text: as §1, §2

[4] = test system: mutant W20; test: as above
From the text: as §1, §2

[5] = test system: Williams 82; test: Test B postemergence cross resistance test; conditions: Glycine max, post-emergence
From the text: (§3) In the second postemergence test, six true-breeding resistant mutant lines (W4, W17, W19, W20, W23, and W28) were compared to Williams 82 for cross resistance to a broad range of ALS inhibitors including eight sulfonylureas and three imidazolinones. Two seeds were planted in each 10 cm pot and allowed to grow to the second trifoliolate stage. Pots were not thinned back if both plants were at the proper stage. For each of 11 herbicides, two rates (Table VII) were selected based on previous data: the low rate was expected to cause significant injury (but not death) to Williams 82 and the high rate was expected to severely injure or kill Williams 82. All but a few line x rate treatments were replicated twice.
as §2

[6] = test system: mutant line W17; test: Test B postemergence cross resistance test; conditions: Glycine max, post-emergence
From the text: as §3, §2

[7] = test system: mutant line W19; test: Test B postemergence cross resistance test; conditions: Glycine max, post-emergence
From the text: as §3, §2

[8] = test system: mutant line W23; test: Test B postemergence cross resistance test; conditions: Glycine max, post-emergence
From the text: as §3, §2

[9] = test system: mutant line W28; test: Test B postemergence cross resistance test; conditions: Glycine max, post-emergence
From the text: as §3, §2

[10] = test system: mutant line W4; test: Test B postemergence cross resistance test; conditions: Glycine max, post-emergence
From the text: as §3, §2

[11] = test system: mutant line W20; test: Test B postemergence cross resistance test; conditions: Glycine max, post-emergence
From the text: as §3
In both postemergence tests, plants were returned to the greenhouse after treatment and provided with ample light, moisture, and nutrients to support healthy plant growth. Two to three ratings per pot were recorded over a three-week period and averaged to obtain a single value for each pot For each herbicide, analysis of variance on injury ratings was performed separately. Fisher's least significant difference (LSD) was used to determine the significance of line mean differences at each herbicide rate using the 95% level of confidence.

[12] = test system: Mutant W4-4; test: Postemergence herbicide spray test of W4-4 (Table VII-A); conditions: two weeks after treatment
Method: (§4) To investigate this hypothesis, a postemergence herbicide spray test was conducted to compare the reaction of W4-4 to both W20 and wild-type Williams. The applicant was particularly interested in the resistance of W4-4 to herbicide treatments that were injurious to both Williams and W20 in a previous test (Table VII). […] Twenty-four plants each of W4-4, W20, and Williams were planted in separate 10 cm pots and allowed to grow to the second trifoliolate stage. Each pot constituted a single experimental unit receiving a single herbicide treatment. Herbicide treatments (Table VIIA) were applied as described for the first postemergence test and were replicated twice. Control plants were sprayed with the spray carrier solution only (water with 0.25% X77 surfactant). At two weeks after treatment, each plant was rated for % herbicide injury as described in Table VIII. Analysis of variance on injury ratings was performed separately for each herbicide to calculate treatment means and standard errors. Fisher's least significant difference (LSD) was used to determine the significance of line means differences at each herbicide rate using the 95% level of confidence. […]

[13] = test system: Williams 82; test: as above; conditions: two weeks after treatment
Method: as §4

[14] = test system: mutant W20; test: as above; conditions: two weeks after treatment
Method: as §4

[15] = test system: WM82 (Williams); test: Field use rate test (Table VII-B)
[16] = test system: W20; test: Field use rate test (Table VII-B)
[17] = test system: W4-4; test: Field use rate test (Table VII-B)

## COC(=O)c1ccccc1S(=O)(=O)NC(=O)N(C)c1nc(C)nc(OC)n1 [Compound 3, Methyl 2-[[[[N-(4-methoxy-6-methyl-1,3,5-triazin-2-yl)N-methylamino]carbonyl]amino]sulfonyl]benzoate]
[1]; 8 g/ha postemergence
  mean % injury: 90%
[1]; 32 g/ha postemergence
  mean % injury: 91%
[2]; WM 82, 8 g/ha postemergence
  mean % injury: 92%
[2]; WM 82, 32 g/ha postemergence
  mean % injury: 95%
[3]; W19, 8 g/ha postemergence
  mean % injury: 14%
[3]; W19, 32 g/ha postemergence
  mean % injury: 63%
[4]; W20, 8 g/ha postemergence
  mean % injury: 8%
[4]; W20, 32 g/ha postemergence
  mean % injury: 63%
[5]; Wm 82, 2 g/ha postemergence
  soybean crop injury at 2 g/ha: 60%
[5]; Wm 82, 8 g/ha postemergence
  soybean crop injury at 8 g/ha: 94%
[6]; W17, 2 g/ha postemergence
  soybean crop injury (%) at 2 g/ha: 0%
[6]; W17, 8 g/ha postemergence
  soybean crop injury (%) at 8 g/ha: 25%
[7]; W19, 2 g/ha postemergence
  percent soybean crop injury at 2 g/ha: 5%
[7]; W19, 8 g/ha postemergence
  percent soybean crop injury at 8 g/ha: 29%
[8]; W23, 2 g/ha postemergence
  percent soybean injury at 2 g/ha: 0%
[8]; W23, 8 g/ha postemergence
  percent soybean injury at 8 g/ha: 45%
[9]; W28, 2 g/ha postemergence
  mean % injury to soybean at 2 g/ha: 8%
[9]; W28, 8 g/ha postemergence
  mean % injury to soybean at 8 g/ha: 21%
[10]; W4, 2 g/ha postemergence
  % crop injury at 2 g/ha: 3%
[10]; W4, 8 g/ha postemergence
  % crop injury at 8 g/ha: 18%
[11]; W20, 2 g/ha postemergence
  percent crop injury at 2 g/ha: 0%

## CCS(=O)(=O)c1cccnc1S(=O)(=O)NC(=O)Nc1nc(OC)cc(OC)n1 [Compound 7, N-[[(4,6-dimethoxy-2-pyrimidinyl)amino]carbonyl]-3-(ethylsulfonyl)-2-pyridinesulfonamide]
[1]; 8 g/ha postemergence
  mean % injury: 93%
[1]; 32 g/ha postemergence
  mean % injury: 93%
[2]; WM 82, 8 g/ha postemergence
  mean % injury: 95%
[2]; WM 82, 32 g/ha postemergence
  mean % injury: 93%
[3]; W19, 8 g/ha postemergence
  mean % injury: 65%
[3]; W19, 32 g/ha postemergence
  mean % injury: 80%
[4]; W20, 8 g/ha postemergence
  mean % injury: 65%
[4]; W20, 32 g/ha postemergence
  mean % injury: 84%
[5]; Wm 82, 1 g/ha postemergence
  soybean crop injury at 1 g/ha: 61%
[5]; Wm 82, 4 g/ha postemergence
  soybean crop injury at 4 g/ha: 98%
[6]; W17, 1 g/ha postemergence
  soybean crop injury (%) at 1 g/ha: 16%
[6]; W17, 4 g/ha postemergence
  soybean crop injury (%) at 4 g/ha: 55%
[7]; W19, 1 g/ha postemergence
  percent soybean crop injury at 1 g/ha: 19%
[7]; W19, 4 g/ha postemergence
  percent soybean crop injury at 4 g/ha: 65%
[8]; W23, 1 g/ha postemergence
  percent soybean injury at 1 g/ha: 31%
[8]; W23, 4 g/ha postemergence
  percent soybean injury at 4 g/ha: 60%
[9]; W28, 1 g/ha postemergence
  mean % injury to soybean at 1 g/ha: 20%
[9]; W28, 4 g/ha postemergence
  mean % injury to soybean at 4 g/ha: 54%
[10]; W4, 1 g/ha postemergence
  % crop injury at 1 g/ha: 21%
[10]; W4, 4 g/ha postemergence
  % crop injury at 4 g/ha: 69%
[11]; W20, 1 g/ha postemergence
  percent crop injury at 1 g/ha: 28%
[11]; W20, 4 g/ha postemergence
  percent crop injury at 4 g/ha: 66%
[12]; W4-4, 4 g/ha postemergence
  mean % injury: 10%
[12]; W4-4, 16 g/ha postemergence
  mean % injury: 30%
[12]; W4-4, 32 g/ha postemergence
  mean % injury: 43%
[13]; WM82, 4 g/ha postemergence
  mean % injury: 83%
[13]; WM82, 16 g/ha postemergence
  mean % injury: 93%
[13]; WM82, 32 g/ha postemergence
  mean % injury: 90%
[14]; W20, 4 g/ha postemergence
  mean % injury: 28%
[14]; W20, 16 g/ha postemergence
  mean % injury: 43%
[14]; W20, 32 g/ha postemergence
  mean % injury: 83%

## CC(C)C1(C)N=C(c2ncccc2C(=O)O)NC1=O (stereo not drawn) [Compound 11, 2-[4,5-dihydro-4-methyl-4-(1-methylethyl)-5-oxo-1H-imidazol-2-yl]-3-pyridinecarboxylic acid, 1-methylethanamine salt]
[5]; Wm 82, 16 g/ha postemergence
  soybean crop injury at 16 g/ha: 49%
[5]; Wm 82, 64 g/ha postemergence
  soybean crop injury at 64 g/ha: 75%
[6]; W17, 16 g/ha postemergence
  soybean crop injury (%) at 16 g/ha: 39%
[6]; W17, 64 g/ha postemergence
  soybean crop injury (%) at 64 g/ha: 61%
[7]; W19, 16 g/ha postemergence
  percent soybean crop injury at 16 g/ha: 41%
[7]; W19, 64 g/ha postemergence
  percent soybean crop injury at 64 g/ha: 60%
[8]; W23, 16 g/ha postemergence
  percent soybean injury at 16 g/ha: 41%
[8]; W23, 64 g/ha postemergence
  percent soybean injury at 64 g/ha: 74%
[9]; W28, 16 g/ha postemergence
  mean % injury to soybean at 16 g/ha: 45%
[9]; W28, 64 g/ha postemergence
  mean % injury to soybean at 64 g/ha: 68%
[10]; W4, 16 g/ha postemergence
  % crop injury at 16 g/ha: 39%
[10]; W4, 64 g/ha postemergence
  % crop injury at 64 g/ha: 73%
[11]; W20, 16 g/ha postemergence
  percent crop injury at 16 g/ha: 44%
[11]; W20, 64 g/ha postemergence
  percent crop injury at 64 g/ha: 61%
[12]; W4-4, 64 g/ha postemergence
  mean % injury: 38%
[12]; W4-4, 125 g/ha postemergence
  mean % injury: 53%
[13]; WM82, 64 g/ha postemergence
  mean % injury: 73%
[13]; WM82, 125 g/ha postemergence
  mean % injury: 83%
[14]; W20, 64 g/ha postemergence
  mean % injury: 48%
[14]; W20, 125 g/ha postemergence
  mean % injury: 80%
[15]; WM82, 8 g/ha
  mean % injury: 50%
[15]; WM82, 17.5 g/ha
  mean % injury: 60%
[15]; WM82, 35 g/ha
  mean % injury: 75%
[16]; W20, 8 g/ha
  mean % injury: 20%
[16]; W20, 17.5 g/ha
  mean % injury: 30%
[16]; W20, 35 g/ha
  mean % injury: 60%
[17]; W4-4, 8 g/ha
  mean % injury: 0%
[17]; W4-4, 17.5 g/ha
  mean % injury: 5%
[17]; W4-4, 35 g/ha
  mean % injury: 25%

From patent publication US5084082A, “Soybean plants with dominant selectable trait for herbicide resistance” (priority 1990, dated 1992)
